Data: US6432883B1, “Methods of treating plants with glycolic acid” (Emerald BioAgriculture Corporation, priority 2000, dated 2002)
Marks after values point to notes of the source that are not given here.

What was measured:
Sclerotinia minor [1] = assay: Cabbage pathogen stress: disease severity rating, fresh and dry weights; format: in vivo; conditions: for Dry Weight / Fresh Weight: cabbage under pathogen stress; for Disease Severity Rating: cabbage, 1-9 rating scale
Method: Market Prize, F1 cabbage seed, lot 88955, was purchased from Harris Seeds, Inc., Rochester, N.Y. These were grown 8 plants per 1 gallon pot, 1 pot per experimental unit and 3 experimental units per each of 3 replications. The plants were spray-treated first at 4 true leaves and again 14 days later with 8 ml per pot. The pathogen stress (Sclerotinia minor hyphal fragments and sclerotia, cultured on potato dextrose agar) was applied to the plant stems at the soil/stem interface at 4 days following the second treatment application.
Treatments consisted of non-inoculated and inoculated groups of non-treated (NTC), water and 0.05% surfactant-blank (SB) controls and 1, 5, 10, 25, 37.5 and 75 ppm of glycolic acid.
Disease assessment was made just prior to harvest by means of a 1-9 based rating scale. Each plant was harvested at the soil line for yield fresh and dry weights. The results in Table 2 below show the data for each treatment and the rating scale definitions.

[2] = test system: Erysiphe graminis/Ooidium; assay: Wheat pathogen stress: disease index on leaves and heads; format: in vivo; conditions: for Disease Index Heads / Disease Index Leaves: wheat, (1-7 severity rating)(% incidence)/100
Method: Kulm wheat seed, lot CR, was purchased from Albert Lea Seed House, Albert Lea, Minn. and grown 100 plants per 1 gallon pot, 3 pots per experimental unit and 1 experimental unit per each of 6 replications. The plants were spray-treated first at late-tillering to jointing and again at “in boot” to anthesis with 8 ml solution per pot. Aerial application of the pathogen stress (Erysiphe graminis/Ooidium conidia cultured on other Kulm wheat plants infected by incoming natural inoculum) was made to the plants at 14 days following the first treatment application, in addition to other naturally occurring inoculum.
Treatments consisted of non-inoculated and inoculated groups of non-treated (NTC), water and 0.05% surfactant-blank (SB) controls and 5, 25, and 50 ppm of glycolic acid.
Disease assessment was made 3 days prior to head harvesting using a 1-7 based severity scale and % incidence. A disease index [(1-7 based severity rating)(% incidence)/100] was created to better describe the compound effect. The results in Table 3 below show the data for each treatment and the rating scale definitions.

Sclerotinia minor [3] = assay: Colony radius of plant pathogen on amended potato dextrose agar; format: cell-based; conditions: in PDA, 4 days, about 23° C., FIG. 5
Description: Sclerotinia minor culture SaM-18 was received from Krishna Subbarro, Ph.D., Univ. Calif., Davis. Potato dextrose agar (PDA) powder was purchased from Baltimore Biological Laboratory, Inc. (BBL), ammonium glycolate and glycolic acid from DuPont Specialty Chemicals and BreakThru® surfactant from Goldschmidt Chemical Corp.
PDA was made, poured into sterile disposable petri dishes (100×15 mm) and inoculated with S. minor sclerotia to start new cultures on day zero. These cultures had reached an appropriate stage of maturation for use for use in the test after two weeks of growth. Multiple 1 liter containers of PDA were made and autoclaved on day 14. These PDA containers remained in the circulating water bath at 46° C. until the solutions were ready for addition (about 2 hrs.). The glycolic acid-containing compositions were added to the 46° C. PDA through a syringe-tip 0.2 μm-pore sterile filtration disc in a positive laminar-flow sterile hood and thoroughly mixed before returning to the 46° C. water bath to await pouring. Stacks of 22 dishes were poured for each medium type and allowed to solidify and cool overnight.
On day 15, soft, white to gray, sclerotial clumps of hyphae were picked from the culture dishes with heat sterilized forceps and one clump was transferred to the center of each test medium dish. Twenty dishes of each inoculated medium were stacked and replaced into the plastic sleeves they were originally packaged in for incubation at room temperature (about 23° C.). After 4 days of growth, some of the cultures had just reached the edges of the medium. The radius of each colony was measure in mm.
Treatments were water controls, 0.05% surfactant controls, 5, 15, 50, 75 and 100 ppm of glycolic acid (F12) and 5, 15, 50, 100 and 750 ppm of ammonia-neutralized glycolic acid (F18; i.e., ammonium glycolate).

Sclerotinia minor [4] = assay: Excised lettuce leaves, post-harvest pathogen stress: disease index; format: in vivo; conditions: for Disease Index [(severity)(% incidence)/100]: 3 days post-inoculation
Description: Waldmann's MTO dark green Grand Rapids leaf lettuce seed, lot# 15529, was purchased from Johnny's Selected Seeds, Albion, Me., and broadcast seeded into 10×20×2′ flats. Circular steel-blue blotter papers (Anchor Paper Co, St. Paul, Minn.) were fitted into disposable petri dishes. Treatments consisted of non-inoculated and inoculated groups of non-treated (NTC), water and 0.01% surfactant-blank (SB) controls and 10, 25, 75,150, 500 and 1000 ppm of glycolic acid.
Blotters were saturated with 4.5 ml sterile tap water. Individual leaves (20) were excised and placed into a treatment solution for 5 seconds or left non-treated. Excess fluid was removed from the leaf surface. These leaves were then placed singly, 1 leaf per dish and adaxial side up, on the moist blotters. Dish lids were replaced and dishes stacked, bagged and returned to the petri dish box for 24 hours dark storage at room temperature (68-72° F.).
Inoculum (Sclerotinia minor hyphal fragments and sclerotia) was grown on potato dextrose agar (PDA) plates until the sclerotia were black and hard. These were blended into a paste with non-inoculated PDA and sterile tap water. A small spot of inoculum paste containing hyphal fragments and 2-3 sclerotia was dotted onto the center of 16 of the 20 leaf pieces per treatment stack 24 hours after test substance application.
Due to the nature of Sclerotinia as a pathogen, disease is generally an all-or-nothing phenomenon. Therefore, it is necessary to assess both disease incidence and disease severity to give an accurate representation of the disease progression. Disease severity assessment was made at 3 days±2 hours post-inoculation by measuring the radius of colonized tissue in mm. Disease incidence was assessed as the presence or absence of infection (number of diseased leaves/ number of leaves tested) 100=% incidence. Multiplying the average severity by the % incidence and dividing by 100 then combined both evaluations into one assessment number and created a disease index value. The results in Table 5 below show this value for each treatment.

SMILES: O=C(O)CO [glycolic acid]
- Dry Weight (Sclerotinia minor [1]; 1 ppm spray): 38.3 g
- Fresh Weight (Sclerotinia minor [1]; 1 ppm spray): 359 g
- Disease Severity Rating (Sclerotinia minor [1]; 1 ppm spray): 3.6
- Dry Weight (Sclerotinia minor [1]; 5 ppm spray): 39.8 g
- Fresh Weight (Sclerotinia minor [1]; 5 ppm spray): 346 g
- Disease Severity Rating (Sclerotinia minor [1]; 5 ppm spray): 3.7
- Dry Weight (Sclerotinia minor [1]; 10 ppm spray): 40.9 g
- Fresh Weight (Sclerotinia minor [1]; 10 ppm spray): 342 g
- Disease Severity Rating (Sclerotinia minor [1]; 10 ppm spray): 2.8
- Dry Weight (Sclerotinia minor [1]; 25 ppm spray): 39.1 g
- Fresh Weight (Sclerotinia minor [1]; 25 ppm spray): 364 g
- Disease Severity Rating (Sclerotinia minor [1]; 25 ppm spray): 2.2
- disease severity versus control (Sclerotinia minor [1]; 37.5 and 75 ppm, α=0.05): statistically significant (α=0.05) decrease
- fresh weight versus control (Sclerotinia minor [1]; 37.5 ppm): statistically significant increase
- Dry Weight (Sclerotinia minor [1]; 37.5 ppm spray): 39.0 g
- Fresh Weight (Sclerotinia minor [1]; 37.5 ppm spray): 381* g
- Disease Severity Rating (Sclerotinia minor [1]; 37.5 ppm spray): 1.7*
- dry weight versus control (Sclerotinia minor [1]; 75 ppm): statistically significant increase
- Dry Weight (Sclerotinia minor [1]; 75 ppm spray): 41.5* g
- Fresh Weight (Sclerotinia minor [1]; 75 ppm spray): 354 g
- Disease Severity Rating (Sclerotinia minor [1]; 75 ppm spray): 2.0*
- disease severity observed in wheat heads versus control wheat ([2]; 5 ppm and 25 ppm, α=0.05): statistically significant (α=0.05) decrease
- Disease Index Heads ([2]; 5 ppm spray): 2.5*
- Disease Index Leaves ([2]; 5 ppm spray): 7.6*
- Disease Index Heads ([2]; 25 ppm spray): 13.4*
- Disease Index Leaves ([2]; 25 ppm spray): 7.0*
- Disease Index Heads ([2]; 50 ppm spray): 18.6*
- Disease Index Leaves ([2]; 50 ppm spray): 36.9
- disease severity in wheat leaves versus control wheat ([2]; all glycolic acid treated wheat, α=0.05): statistically significant (α=0.05) decrease
- growth of Sclerotinia minor (colony radius) compared to controls (Sclerotinia minor [3]): statistically significantly increased the growth
- Disease Index [(severity)(% incidence)/100] (Sclerotinia minor [4]; 10 ppm leaf dip): 1.2
- disease severity versus control lettuce (Sclerotinia minor [4]; 25 ppm and 75 ppm, lettuce leaves, α=0.05): statistically significant (α=0.05) decrease
- Disease Index [(severity)(% incidence)/100] (Sclerotinia minor [4]; 25 ppm leaf dip): 0.1*
- Disease Index [(severity)(% incidence)/100] (Sclerotinia minor [4]; 75 ppm leaf dip): 0.5*
- Disease Index [(severity)(% incidence)/100] (Sclerotinia minor [4]; 150 ppm leaf dip): 1.3
- Disease Index [(severity)(% incidence)/100] (Sclerotinia minor [4]; 500 ppm leaf dip): 1.1
- Disease Index [(severity)(% incidence)/100] (Sclerotinia minor [4]; 1000 ppm leaf dip): 2.0
